# From patent publication US20140314857A1, “FORMULATIONS FOR ENHANCED BIOAVAILABILITY OF ZANAMIVIR” (priority 2012, published 2014)
# Test system: Caco-2 cell monolayers
# Assay: Initial screening of permeability enhancers with peramivir across Caco-2 cell monolayers
# Settings: with glycerol or Capmul MCM L8 as enhancer; results not shown
compound,measurement,value
CCC(CC)[C@H](NC(C)=O)[C@@H]1[C@H](O)[C@@H](C(=O)O)C[C@H]1N=C(N)N [peramivir],drug transport across Caco-2 cell monolayers,substantially increased drug transport
